One data set deals with T1, Glucocorticoid receptor (Homo sapiens, UniProt P04150).
T1 sequence (P04150 whole entry): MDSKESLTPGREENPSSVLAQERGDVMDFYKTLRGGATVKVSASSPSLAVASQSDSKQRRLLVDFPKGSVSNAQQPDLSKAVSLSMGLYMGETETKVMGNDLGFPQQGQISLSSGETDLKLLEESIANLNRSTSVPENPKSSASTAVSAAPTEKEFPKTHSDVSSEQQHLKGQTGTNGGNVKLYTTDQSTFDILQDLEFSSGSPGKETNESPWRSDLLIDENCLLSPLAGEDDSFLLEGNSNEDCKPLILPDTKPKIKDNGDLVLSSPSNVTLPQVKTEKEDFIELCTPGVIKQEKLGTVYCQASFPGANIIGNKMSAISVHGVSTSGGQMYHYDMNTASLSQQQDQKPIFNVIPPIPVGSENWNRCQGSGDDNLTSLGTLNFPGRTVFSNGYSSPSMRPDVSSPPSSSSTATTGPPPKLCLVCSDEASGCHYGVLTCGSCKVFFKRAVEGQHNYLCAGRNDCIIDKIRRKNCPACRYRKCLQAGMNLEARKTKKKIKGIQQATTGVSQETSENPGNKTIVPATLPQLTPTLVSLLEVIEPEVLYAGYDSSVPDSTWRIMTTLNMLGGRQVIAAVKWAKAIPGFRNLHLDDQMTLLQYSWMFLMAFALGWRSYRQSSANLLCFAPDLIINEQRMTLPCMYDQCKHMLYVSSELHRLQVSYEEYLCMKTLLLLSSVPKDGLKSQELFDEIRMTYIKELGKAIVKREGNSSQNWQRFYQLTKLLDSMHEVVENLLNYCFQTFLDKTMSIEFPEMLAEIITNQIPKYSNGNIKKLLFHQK
The data set can be described thus: Binding affinity at glucocorticoid receptor.

A short description of data set [1]: Oral bioavailability in rat. It is filed as ADME, organism-based. Particulars: in vivo.
A short description of data set [2]: Binding affinity at dopamine receptor.
The target in the next data set is Histamine H1 receptor (Homo sapiens, UniProt P35367). Put plainly: Displacement of [3H]mepyramine from human histamine H1 receptor. Particulars: read-out: Ki. In general terms: Loss of bound radioactivity is the signal in a displacement assay; it reports binding, not function.
The target in the next data set is T2, Estrogen receptor (Homo sapiens, UniProt P03372).
T2 sequence (P03372 whole entry): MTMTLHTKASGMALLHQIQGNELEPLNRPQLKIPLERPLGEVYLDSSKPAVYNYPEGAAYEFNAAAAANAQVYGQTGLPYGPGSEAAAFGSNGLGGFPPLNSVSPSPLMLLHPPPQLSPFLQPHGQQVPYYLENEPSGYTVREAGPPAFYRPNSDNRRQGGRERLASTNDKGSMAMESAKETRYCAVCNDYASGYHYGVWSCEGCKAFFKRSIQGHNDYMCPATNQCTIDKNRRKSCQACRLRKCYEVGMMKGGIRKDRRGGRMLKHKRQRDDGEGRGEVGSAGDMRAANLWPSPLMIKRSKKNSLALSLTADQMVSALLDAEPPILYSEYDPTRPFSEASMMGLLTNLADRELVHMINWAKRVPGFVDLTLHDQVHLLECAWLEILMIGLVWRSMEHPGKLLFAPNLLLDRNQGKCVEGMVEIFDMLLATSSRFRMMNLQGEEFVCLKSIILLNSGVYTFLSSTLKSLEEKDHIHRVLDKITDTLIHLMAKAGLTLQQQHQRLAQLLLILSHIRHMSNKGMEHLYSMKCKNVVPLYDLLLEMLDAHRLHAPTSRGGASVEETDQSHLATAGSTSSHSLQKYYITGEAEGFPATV
The data set can be described thus: Binding affinity at estrogen receptor.

The target of another data set is T3, Progesterone receptor (Homo sapiens, UniProt P06401).
T3 sequence (P06401 whole entry): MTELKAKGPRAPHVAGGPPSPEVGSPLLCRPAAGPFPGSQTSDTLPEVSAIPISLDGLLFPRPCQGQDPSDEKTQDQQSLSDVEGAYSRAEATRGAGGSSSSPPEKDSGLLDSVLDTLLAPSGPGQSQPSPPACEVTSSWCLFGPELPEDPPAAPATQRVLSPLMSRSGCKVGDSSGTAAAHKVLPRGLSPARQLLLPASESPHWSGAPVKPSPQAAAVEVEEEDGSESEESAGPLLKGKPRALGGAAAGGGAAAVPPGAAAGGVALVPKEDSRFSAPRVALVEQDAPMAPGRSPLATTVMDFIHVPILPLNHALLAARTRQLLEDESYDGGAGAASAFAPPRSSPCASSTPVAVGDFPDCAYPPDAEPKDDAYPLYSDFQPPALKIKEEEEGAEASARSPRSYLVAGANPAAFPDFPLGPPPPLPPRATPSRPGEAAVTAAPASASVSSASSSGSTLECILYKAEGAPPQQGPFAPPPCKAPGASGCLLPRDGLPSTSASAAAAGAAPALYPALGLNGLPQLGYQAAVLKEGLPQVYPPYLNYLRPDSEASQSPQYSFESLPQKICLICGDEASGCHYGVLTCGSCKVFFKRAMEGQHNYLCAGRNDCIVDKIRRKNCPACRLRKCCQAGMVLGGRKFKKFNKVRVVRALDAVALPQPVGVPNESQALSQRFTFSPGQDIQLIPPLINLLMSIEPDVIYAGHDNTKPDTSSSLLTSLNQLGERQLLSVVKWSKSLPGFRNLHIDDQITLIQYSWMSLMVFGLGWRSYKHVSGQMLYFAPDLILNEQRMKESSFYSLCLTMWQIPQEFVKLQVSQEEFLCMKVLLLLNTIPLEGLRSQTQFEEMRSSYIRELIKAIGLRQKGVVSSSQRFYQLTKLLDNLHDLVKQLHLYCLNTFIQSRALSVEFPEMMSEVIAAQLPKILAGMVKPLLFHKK
The data set can be described thus: Binding affinity at progesterone receptor.

Histamine H1 receptor, sequence (P35367 whole entry): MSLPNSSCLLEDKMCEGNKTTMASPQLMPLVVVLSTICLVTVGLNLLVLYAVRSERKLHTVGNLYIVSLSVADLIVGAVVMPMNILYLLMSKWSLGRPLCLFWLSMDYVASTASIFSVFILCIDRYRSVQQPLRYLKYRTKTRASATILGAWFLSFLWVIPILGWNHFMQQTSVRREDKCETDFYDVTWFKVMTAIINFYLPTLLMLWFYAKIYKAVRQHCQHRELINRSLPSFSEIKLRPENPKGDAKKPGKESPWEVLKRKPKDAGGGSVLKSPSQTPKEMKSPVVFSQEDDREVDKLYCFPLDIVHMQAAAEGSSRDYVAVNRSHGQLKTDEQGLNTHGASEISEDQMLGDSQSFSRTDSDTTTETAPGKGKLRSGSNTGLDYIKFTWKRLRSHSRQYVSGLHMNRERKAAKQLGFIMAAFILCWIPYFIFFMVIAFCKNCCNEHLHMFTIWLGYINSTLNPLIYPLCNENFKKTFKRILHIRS

As a reminder, the Ki is the equilibrium dissociation constant of an inhibitor or competing ligand from its target. In general, bioavailability refers to dose-corrected exposure relative to a reference, in per cent. A lower bioavailability goes with little systemic uptake. Consider `CN[C@@H](C(=O)N(C)[C@H]1CC[C@@]2(C)C(=CC[C@H]3[C@@H]4CC[C@@H]5[C@H](C)N(C)C[C@@]54CC[C@@H]32)C1)C(C)C`, for which the Ki on Glucocorticoid receptor is more than 30 µM; in data set [2], more than 10 µM; on Histamine H1 receptor, more than 10 µM; on Estrogen receptor, more than 30 µM; at Progesterone receptor, more than 30 µM. Besides, the bioavailability in data set [1] stood at 65%.

Source of the values: ChEMBL document CHEMBL1157348, “The alkaloid conessine and analogues as potent histamine H3 receptor antagonists” (J Med Chem, 2008).
